Experiments:
[1] = tested on: Tambaguro/Determinate soybean; test: Example 3 pot test, pre-emergence soil spray: crop injury on soybean variety Tambaguro; assay type: in vivo, Glycine max; details: 18 days after treatment, 0 = no or little difference from untreated, 100 = complete death
Text: (§1) The evaluation of the herbicidal effect and crop injury is classified into 0 to 100, where the numeral “0” indicates no or little difference in the state of germination or growth of weeds or soybean under test at the time of examination as comparison with untreated weeds or soybean, respectively and the numeral “100” indicates the complete death of weeds or soybean under test or the complete inhibition of their germination or growth of weeds or soybean under test.
(§2) Four varieties of determinate soybean, four varieties of indeterminate soybean, Palmer amaranth, kochia and large crabgrass were sown to a pot filled with a soil. On the next day, a trifludimoxazin spray liquid. (prepared by diluting an emuslfiable concentrate of trifludimoxazin with water) was uniformly sprayed onto the pot at the amount of 200 L, per hectare so that the application rate of trifludimoxazin might be 25 and 50 g per hectare. 18 days after treatment, herbicidal effects on weeds and injury on soybeans were investigated. As a result, the herbicidal effect on each of the three weeds was 100.

[2] = tested on: Toyomusume/Determinate soybean; test: Example 3 pot test, pre-emergence soil spray: crop injury on soybean variety Toyomusume; assay type: in vivo, Glycine max; details: 18 days after treatment
Text: as §1, §2

[3] = tested on: Sachiyutaka/Determinate soybean; test: Example 3 pot test, pre-emergence soil spray: crop injury on soybean variety Sachiyutaka; assay type: in vivo, Glycine max; details: 18 days after treatment
Text: as §1, §2

[4] = tested on: Fukunari/Determinate soybean; test: Example 3 pot test, pre-emergence soil spray: crop injury on soybean variety Fukunari; assay type: in vivo, Glycine max; details: 18 days after treatment
Text: as §1, §2

[5] = tested on: Kurosengoku/Indeterminate soybean; test: Example 3 pot test, pre-emergence soil spray: crop injury on soybean variety Kurosengoku; assay type: in vivo, Glycine max; details: 18 days after treatment
Text: as §1, §2

[6] = tested on: Wild soybean/Indeterminate; test: Example 3 pot test, pre-emergence soil spray: crop injury on wild soybean; assay type: in vivo, Glycine soja; details: 18 days after treatment
Text: as §1, §2

[7] = tested on: Williams 82/Indeterminate soybean; test: Example 3 pot test, pre-emergence soil spray: crop injury on soybean variety Williams 82; assay type: in vivo, Glycine max; details: 18 days after treatment
Text: as §1, §2

[8] = tested on: Harosoy/Indeterminate soybean; test: Example 3 pot test, pre-emergence soil spray: crop injury on soybean variety Harosoy; assay type: in vivo, Glycine max; details: 18 days after treatment
Text: as §1, §2

Palmer amaranth = test: Example 3 pot test, pre-emergence soil spray: herbicidal effect on Palmer amaranth; assay type: in vivo, Amaranthus palmeri; details: 25 and 50 g per hectare, 18 days after treatment, 100 = complete death
Text: as §1, §2

kochia = test: Example 3 pot test, pre-emergence soil spray: herbicidal effect on kochia; assay type: in vivo, Kochia scoparia; details: 25 and 50 g per hectare, 18 days after treatment, 100 = complete death
Text: as §1, §2

large crabgrass = test: Example 3 pot test, pre-emergence soil spray: herbicidal effect on large crabgrass; assay type: in vivo, Digitaria sanguinalis; details: 25 and 50 g per hectare, 18 days after treatment, 100 = complete death
Text: as §1, §2

[9] = tested on: palmer amaranth, waterhemp, kochia, common ragweed and marestail; test: Example 1 pot test, spray two days after sowing: herbicidal effect on weeds; assay type: in vivo; details: 25 or 50 g per hectare; applied two days after sowing; 21 days after the treatment
Text: as §1
(§3) A pot is filled with a soil, and the determinate soybean, indeterminate soybean, semi-determinate soybean, palmer amaranth, waterhemp, kochia, common ragweed and marestail are sown thereto. Two days later, trifludimoxazin spray liquid (prepared by diluting trifludimoxazin formulation an aqueous suspension concentrate containing 500 g/L of trifludimoxazin) with water) is uniformly applied onto the pot using a sprayer at the amount of 200 L per hectare so that the application rate of trifludimoxazin may be 25 or 50 g per hectare. 21 days after the treatment, herbicidal effects and injuries on various soybeans are investigated.

[10] = tested on: determinate soybean, indeterminate soybean, semi-determinate soybean; test: Example 1 pot test, spray two days after sowing: injury on soybeans; assay type: in vivo, Glycine max; details: 25 or 50 g per hectare; applied two days after sowing; 21 days after the treatment
Text: as §1, §3

[11] = tested on: palmer amaranth, waterhemp, kochia, common ragweed and marestail; test: Example 2 pot test, spray on day of weed sowing, before soybean sowing: herbicidal effect on weeds; assay type: in vivo; details: 25 or 50 g per hectare; applied on day of weed sowing; 21 days after sowing soybeans
Text: as §1
(§4) A pot is filled with a soil, and then Palmer amaranth, waterhemp, kochia, common ragweed and marestail are sown thereto. On the same day, trifludimoxazin spray liquid (prepared by diluting trifludimoxazin formulation (an aqueous suspension concentrate containing 500 g/L of trifludimoxazin) with water) is uniformly applied onto the pot using a sprayer at the amount of 200 L per hectare so that the application rate of trifludimoxazin may be 25 or 50 g per hectare. On the next day, determinate soybean, indeterminate soybean, and semi-determinate soybean are sown. 21 days after sowing soybeans, herbicidal effects and injuries on various soybeans are investigated.

[12] = tested on: determinate soybean, indeterminate soybean, and semi-determinate soybean; test: Example 2 pot test, spray one day before soybean sowing: injury on soybeans; assay type: in vivo, Glycine max; details: 25 or 50 g per hectare; applied one day before sowing soybeans; 21 days after sowing soybeans
Text: as §1, §4

`C#CCN1C(=O)C(F)(F)Oc2cc(F)c(-n3c(=O)n(C)c(=S)n(C)c3=O)cc21` [trifludimoxazin] was tested. Which “injury on soybeans (0 to 100 scale)” value ([1]; 25 g/hectare) did it give?
The value was 0.

What about the “injury on soybeans (0 to 100 scale)” value ([1]; 50 g/hectare) of the same compound?
The value was 10.

And the “injury on soybeans (0 to 100 scale)” value ([2]; 25 g/hectare)?
The value was 0.

What about the “injury on soybeans (0 to 100 scale)” value ([2]; 50 g/hectare) of the same compound?
Its value is 5.

What about the “injury on soybeans (0 to 100 scale)” value ([3]; 25 g/hectare) of the same compound?
The value was 0.

And the “injury on soybeans (0 to 100 scale)” value ([3]; 50 g/hectare)?
Its value is 0.

What about the “injury on soybeans (0 to 100 scale)” value ([4]; 25 g/hectare) of the same compound?
Its value is 0.

And the “injury on soybeans (0 to 100 scale)” value ([4]; 50 g/hectare)?
The value was 0.

And the “injury on soybeans (0 to 100 scale)” value ([5]; 25 g/hectare)?
Its value is 30.

What about the “injury on soybeans (0 to 100 scale)” value ([5]; 50 g/hectare) of the same compound?
The value was 60.

And the “injury on soybeans (0 to 100 scale)” value ([6]; 25 g/hectare)?
The value was 100.

What about the “injury on soybeans (0 to 100 scale)” value ([6]; 50 g/hectare) of the same compound?
The value was 100.

And the “injury on soybeans (0 to 100 scale)” value ([7]; 25 g/hectare)?
The value was 40.

What about the “injury on soybeans (0 to 100 scale)” value ([7]; 50 g/hectare) of the same compound?
The value was 80.

What about the “injury on soybeans (0 to 100 scale)” value ([8]; 25 g/hectare) of the same compound?
The value was 30.

And the “injury on soybeans (0 to 100 scale)” value ([8]; 50 g/hectare)?
The value was 50.

What about the “herbicidal effect (0 to 100 scale)” value (Palmer amaranth) of the same compound?
Its value is 100.

And the “herbicidal effect (0 to 100 scale)” value (kochia)?
Its value is 100.

And the “herbicidal effect (0 to 100 scale)” value (large crabgrass)?
Its value is 100.

And the “herbicidal effects on weeds” value [9]?
The value was “High herbicidal effects on all weeds”.

What about the “injuries on various soybeans (comparison of growth habits)” value [10] of the same compound?
Its value is “injury on determinate soybean is less than those on indeterminate soybean and semi-determinate soybean”.

And the “herbicidal effects on weeds” value [11]?
The value was “High effects on all weeds”.

And the “injuries on various soybeans (comparison of growth habits)” value [12]?
Its value is “injury on determinate soybean is less than those on indeterminate soybean and semi-determinate soybean”.
